Assay results from patent publication US12054498B2, “Heteroaromatic macrocyclic ether chemotherapeutic agents” (Nuvalent, Inc., priority 2020, dated 2024).

Columns and labels:
[1] = biological target: T1, Ba/F3 cells EML4-ALK L1196M/G1202R (variant 1) (Homo sapiens, UniProt Q9UM73, G1202R/L1196M); assay: Ba/F3 cell proliferation assay, EML4-ALK L1196M/G1202R (variant 1); assay type: cell-based; settings: 72 hours, CellTiter-Glo
T1 construct: echinoderm microtubule-associated protein-like 4 (EML4) gene and the ALK tyrosine kinase domain; host or cells: Ba/F3 (RIKEN), retroviral pMSCV-puro; the other entry of the earlier key: EML4 (Q9HC35, Echinoderm microtubule-associated protein-like 4)
How it was run: (§1)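 IL-3-independent Ba/F3 lines stably expressing the fusion kinase (retroviral, puromycin-selected), 1,000 cells/well, treated with 3-fold compound dilutions for 72 h. Viability by CellTiter-Glo luminescence; IC50 from four-parameter logistic fit of percent inhibition.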

Ba/F3 cells TPM3-TRKA = biological target: T2, Ba/F3 cells TPM3-TRKA (Homo sapiens, UniProt P04629); assay: Ba/F3 cell proliferation assay, TPM3-TRKA; assay type: cell-based; settings: 72 hours, CellTiter-Glo, read-out: TPM3-NTRK1-wt IC50
T2 construct: host or cells: Ba/F3 (RIKEN), retroviral pMSCV-puro; the other entry of the earlier key: TPM3 (P06753, Tropomyosin alpha-3 chain)
How it was run: as §1

[2] = tested on: TPM3-NTRK1-wt IC50 / primary target IC50 (e.g. CD74-ROS1-wt); assay: TRKA selectivity in Ba/F3 cells (TRKA potency divided by primary target potency); assay type: cell-based; settings: for TPM3-NTRK1-wt/CD74-ROS1-G2032R selectivity ratio: TRKA potency / CD74-ROS1-G2032R potency; for TPM3-NTRK1-wt/CD74-ROS1-wt selectivity ratio: TRKA potency / CD74-ROS1-wt potency; for TPM3-NTRK1-wt/EML4-ALK-L1196M-G1202R selectivity ratio: TRKA potency / EML4-ALK-L1196M-G1202R potency; for TPM3-NTRK1-wt/EML4-ALK-wt selectivity ratio: TRKA potency / EML4-ALK-wt potency
Procedure: TRKA selectivity was calculated by dividing a compound's TRKA potency by its primary target potency (e.g. TPM3-NTRK1-wt IC50/CD74-ROS1-wt IC50). Compound selectivity can be interpreted by binning ratio values: bin A for very high selectivity, ratio >30-fold; bin B for high selectivity, ratio >10-fold; bin C for moderate selectivity, ratio ≥1; and bin D for low selectivity, ratio <1. […] (nd=not determined).

[3] = biological target: T3, Ba/F3 cells CD74-ROS1 G2032R (Homo sapiens, UniProt P08922, G2032R); assay: Ba/F3 cell proliferation assay, CD74-ROS1 G2032R; assay type: cell-based; settings: 72 hours, CellTiter-Glo
T3 construct: fusion of the C-terminus of ROS1 with the N-terminus of various partner proteins; host or cells: Ba/F3 (RIKEN), retroviral pMSCV-puro; the other entry of the earlier key: CD74 (P04233, HLA class II histocompatibility antigen gamma chain)
How it was run: (§2)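 Cells were seeded 1 day, then exposed to a 3-fold compound dilution series for 72 hours. Viability was read by CellTiter-Glo luminescence; IC50 came from four-parameter logistic fitting of percent inhibition.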

[4] = biological target: T4, Ba/F3 cells CD74-ROS1 wild-type (wt) (Homo sapiens, UniProt P08922); assay: Ba/F3 cell proliferation assay, CD74-ROS1 wild-type; assay type: cell-based; settings: 72 hours, CellTiter-Glo
T4 construct: fusion of the C-terminus of ROS1 with the N-terminus of various partner proteins; host or cells: Ba/F3 (RIKEN), retroviral pMSCV-puro; the other entry of the earlier key: CD74 (P04233, HLA class II histocompatibility antigen gamma chain)
How it was run: as §2

ROS1-G2032R = biological target: T5, ROS1-G2032R (Homo sapiens, UniProt P08922, G2032R); assay: Biochemical kinase assay, ROS1-G2032R kinase domain; settings: apparent inhibitory constant, Morrison equation; ATP 2 mM in substrate solution; read-out: ROS1-G2032R Ki^app
T5 construct: purchased SignalChem R14-12BG
How it was run: (§3)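 Compounds, as 100-fold DMSO stocks, were dispensed first, then substrate mix was added (ATP 2 mM, AQT0101 26 μM, in 50 mM HEPES pH 7.5/10 mM MgCl2). Reactions ran at 30 °C with fluorescence logged every 2 min over 120 min. Apparent inhibition constants came from fitting rates to Morrison's tight-binding equation.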

TRKA-wt = biological target: T6, TRKA-wt (Homo sapiens, UniProt P04629); assay: Biochemical kinase assay, TRKA-wt kinase domain; settings: apparent inhibitory constant, Morrison equation; ATP 2 mM in substrate solution; read-out: TRKA-wt Ki^app
T6 construct: or TRKA-wt (1 nM, BPS Bio, 40280) kinase domains in buffer; purchased BPS Bio 40280
How it was run: (§4)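 Kinase domains (in kinase solution: ROS1-G2032R 0.5 nM, ROS1-wt 0.6 nM, TRKA 1 nM, ALK L1196M/G1202R 3 nM) were mixed with compound and a substrate solution of 2 mM ATP plus 26 μM fluorogenic AQT0101 (ALK, ROS1) or AQT0104 (TRKA) in HEPES pH 7.5/MgCl2. Fluorescence was followed for 120 min at 30° C; Ki^app was obtained by Morrison fit of initial rates.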

[5] = biological target: T7, Ba/F3 cells EML4-ALK wt (variant 1) (Homo sapiens, UniProt Q9UM73); assay: Ba/F3 cell proliferation assay, EML4-ALK wt (variant 1); assay type: cell-based; settings: 72 hours, CellTiter-Glo
T7 construct: echinoderm microtubule-associated protein-like 4 (EML4) gene and the ALK tyrosine kinase domain; host or cells: Ba/F3 (RIKEN), retroviral pMSCV-puro; the other entry of the earlier key: EML4 (Q9HC35, Echinoderm microtubule-associated protein-like 4)
How it was run: as §1

ALK L1196M/G1202R = biological target: T8, ALK L1196M/G1202R (Homo sapiens, UniProt Q9UM73, G1202R/L1196M); assay: Biochemical kinase assay, ALK L1196M/G1202R kinase domain; settings: apparent inhibitory constant, Morrison equation; ATP 2 mM in substrate solution; read-out: ALK-L1196M-G1202R Ki^app
T8 construct: purchased SignalChem A19-12NG
How it was run: as §4

ROS1-wt = biological target: T9, ROS1-wt (Homo sapiens, UniProt P08922); assay: Biochemical kinase assay, ROS1-wt kinase domain; settings: apparent inhibitory constant, Morrison equation; ATP 2 mM in substrate solution; read-out: ROS1-wt Ki^app
T9 construct: purchased Carna 08-163
How it was run: as §3

ALK-wt = biological target: T10, ALK-wt (Homo sapiens, UniProt Q9UM73); assay: Biochemical kinase assay, ALK-wt kinase domain; settings: apparent inhibitory constant, Morrison equation; ATP 2 mM in substrate solution; read-out: ALK-wt Ki^app
T10 construct: purchased Carna 08-518
How it was run: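 Apparent Ki values come from fitting initial reaction rates against inhibitor concentration to the Morrison equation. Rates were taken from the linear phase of fluorogenic substrate phosphorylation (AQT0101 for ALK and ROS1, AQT0104 for TRKA; 26 μM in substrate solution with 2 mM ATP), monitored at 485 nm over 120 min at 30° C.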

T10 sequence (Q9UM73 1116-1392 limits assumed): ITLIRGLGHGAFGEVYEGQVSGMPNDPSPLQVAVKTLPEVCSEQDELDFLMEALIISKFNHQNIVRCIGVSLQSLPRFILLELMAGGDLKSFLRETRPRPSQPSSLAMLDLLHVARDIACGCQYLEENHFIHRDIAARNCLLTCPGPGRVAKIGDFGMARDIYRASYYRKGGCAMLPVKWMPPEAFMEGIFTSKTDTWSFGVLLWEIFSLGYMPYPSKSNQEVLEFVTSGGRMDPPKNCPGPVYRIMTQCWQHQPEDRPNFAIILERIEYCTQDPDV
T7 sequence (Q9UM73 with tags, fused parts or gaps): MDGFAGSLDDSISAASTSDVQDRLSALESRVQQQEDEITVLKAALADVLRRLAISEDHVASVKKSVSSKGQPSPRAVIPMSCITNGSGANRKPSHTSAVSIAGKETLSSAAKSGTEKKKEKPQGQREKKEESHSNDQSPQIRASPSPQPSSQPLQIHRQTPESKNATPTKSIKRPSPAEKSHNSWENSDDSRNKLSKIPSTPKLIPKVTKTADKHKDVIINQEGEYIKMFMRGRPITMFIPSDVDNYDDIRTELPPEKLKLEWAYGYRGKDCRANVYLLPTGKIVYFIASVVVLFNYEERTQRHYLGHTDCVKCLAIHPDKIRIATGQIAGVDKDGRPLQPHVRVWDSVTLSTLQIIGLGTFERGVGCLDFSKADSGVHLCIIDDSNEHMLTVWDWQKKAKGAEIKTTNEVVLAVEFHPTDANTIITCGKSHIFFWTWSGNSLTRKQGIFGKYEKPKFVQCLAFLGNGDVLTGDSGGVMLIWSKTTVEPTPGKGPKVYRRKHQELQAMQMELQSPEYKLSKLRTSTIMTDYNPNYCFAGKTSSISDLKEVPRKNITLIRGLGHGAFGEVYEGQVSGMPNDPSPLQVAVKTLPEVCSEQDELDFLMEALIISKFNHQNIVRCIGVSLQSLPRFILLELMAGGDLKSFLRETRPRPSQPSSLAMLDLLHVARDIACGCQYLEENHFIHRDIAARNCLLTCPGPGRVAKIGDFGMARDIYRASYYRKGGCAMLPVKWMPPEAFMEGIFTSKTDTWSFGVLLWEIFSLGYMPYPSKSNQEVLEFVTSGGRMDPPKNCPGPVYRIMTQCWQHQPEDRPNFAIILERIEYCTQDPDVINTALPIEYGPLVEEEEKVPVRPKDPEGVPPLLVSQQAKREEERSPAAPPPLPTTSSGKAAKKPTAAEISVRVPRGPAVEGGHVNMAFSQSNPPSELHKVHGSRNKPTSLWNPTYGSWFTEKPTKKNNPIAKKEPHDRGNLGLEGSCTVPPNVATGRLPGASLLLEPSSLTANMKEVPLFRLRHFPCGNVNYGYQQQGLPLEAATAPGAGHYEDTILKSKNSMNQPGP
T6 sequence (P04629 510-781 limits assumed): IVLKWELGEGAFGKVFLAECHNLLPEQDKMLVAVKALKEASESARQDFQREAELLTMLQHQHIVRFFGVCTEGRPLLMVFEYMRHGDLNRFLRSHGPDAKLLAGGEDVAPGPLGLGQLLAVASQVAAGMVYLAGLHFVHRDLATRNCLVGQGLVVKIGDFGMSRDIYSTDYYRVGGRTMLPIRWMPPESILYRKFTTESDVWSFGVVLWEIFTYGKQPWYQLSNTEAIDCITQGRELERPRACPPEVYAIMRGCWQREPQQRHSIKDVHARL
T2 sequence (P04629 510-796 limits assumed): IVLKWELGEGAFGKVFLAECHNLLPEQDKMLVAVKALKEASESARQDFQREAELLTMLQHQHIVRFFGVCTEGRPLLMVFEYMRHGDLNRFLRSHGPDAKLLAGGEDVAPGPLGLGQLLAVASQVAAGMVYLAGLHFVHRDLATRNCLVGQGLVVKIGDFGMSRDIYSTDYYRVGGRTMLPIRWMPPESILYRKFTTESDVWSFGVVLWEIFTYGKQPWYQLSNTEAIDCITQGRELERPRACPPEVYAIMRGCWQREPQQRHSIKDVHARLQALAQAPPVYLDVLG
T3 sequence (P08922 1883-2347 G2032R limits assumed): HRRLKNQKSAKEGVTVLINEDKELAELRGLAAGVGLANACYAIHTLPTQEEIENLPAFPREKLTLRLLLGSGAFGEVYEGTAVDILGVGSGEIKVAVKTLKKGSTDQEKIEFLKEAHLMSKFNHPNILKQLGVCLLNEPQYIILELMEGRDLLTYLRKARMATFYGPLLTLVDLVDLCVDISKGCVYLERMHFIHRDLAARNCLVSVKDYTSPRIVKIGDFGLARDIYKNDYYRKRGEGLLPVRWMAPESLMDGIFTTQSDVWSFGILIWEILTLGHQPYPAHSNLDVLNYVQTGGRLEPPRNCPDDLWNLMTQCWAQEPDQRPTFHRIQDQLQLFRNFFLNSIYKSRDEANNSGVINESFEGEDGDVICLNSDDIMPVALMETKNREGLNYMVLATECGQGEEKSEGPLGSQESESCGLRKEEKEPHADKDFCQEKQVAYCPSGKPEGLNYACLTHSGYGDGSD
T1 sequence (Q9UM73 with tags, fused parts or gaps L1196M/G1202R): as the sequence (Q9UM73 with tags, fused parts or gaps) above, with L635M, G641R counted along it
T4 sequence (P08922 1883-2347 limits assumed): as the sequence (P08922 1883-2347 G2032R limits assumed) above, with R150G counted along it
T5 sequence (P08922 1945-2222 G2032R limits assumed): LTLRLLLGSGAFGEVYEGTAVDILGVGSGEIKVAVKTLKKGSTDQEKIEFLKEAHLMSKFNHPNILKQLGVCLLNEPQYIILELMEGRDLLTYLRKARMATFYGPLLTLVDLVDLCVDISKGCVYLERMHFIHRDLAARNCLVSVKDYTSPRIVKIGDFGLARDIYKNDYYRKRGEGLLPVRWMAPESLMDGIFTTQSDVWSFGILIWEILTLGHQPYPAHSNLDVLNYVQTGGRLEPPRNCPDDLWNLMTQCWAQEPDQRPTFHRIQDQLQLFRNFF
T8 sequence (Q9UM73 1116-1392 L1196M/G1202R limits assumed): as the sequence (Q9UM73 1116-1392 limits assumed) above, with L81M, G87R counted along it
T9 sequence (P08922 1945-2222 limits assumed): as the sequence (P08922 1945-2222 G2032R limits assumed) above, with R88G counted along it

Row | SMILES | IC50 [1] | IC50 (Ba/F3 cells TPM3-TRKA) | TPM3-NTRK1-wt/CD74-ROS1-G2032R selectivity ratio [2] | TPM3-NTRK1-wt/CD74-ROS1-wt selectivity ratio [2] | TPM3-NTRK1-wt/EML4-ALK-L1196M-G1202R selectivity ratio [2] | TPM3-NTRK1-wt/EML4-ALK-wt selectivity ratio [2] | IC50 [3] | IC50 [4] | Ki (ROS1-G2032R) | Ki (TRKA-wt) | IC50 [5] | Ki (ALK L1196M/G1202R) | Ki (ROS1-wt) | Ki (ALK-wt)
1 | Cc1nn(CC2CC2)c2c1Cc1nn(C)nc1-c1ccc(F)cc1COc1cc-2cnc1N [Example 71, 3-(cyclopropylmethyl)-16-fluoro-5,10-dimethyl-20-oxa-3,4,9,10,11,23-hexaazapentacyclo[19.3.1.0^2,^6.0^8,^12.0^13,^18]pentacosa-1(24),2(6),4,8,11,13,15,17,21(25),22-decaen-22-amine] | 50 to 500 nM | > 500 nM | A (bin A for very high selectivity, ratio >30-fold) | A (bin A for very high selectivity, ratio >30-fold) | B (bin B for high selectivity, ratio >10-fold) | A (bin A for very high selectivity, ratio >30-fold) | 0.1 to 50 nM | 0.1 to 50 nM | 50 to 500 nM | > 500 nM | 50 to 500 nM | < 50 nM | < 50 nM | < 50 nM
2 | C[C@H]1Oc2cc(cnc2N)-c2c(cnn2CC2CC2)Cc2ncc(F)cc2-c2ccc(F)cc21 [Example 72, (20R)-3-(cyclopropylmethyl)-11,17-difluoro-20-methyl-21-oxa-3,4,9,24-tetraazapentacyclo[20.3.1.0^2,^6.0^8,^13.0^14,^19]hexacosa-1(25),2(6),4,8(13),9,11,14,16,18,22(26),23-undecaen-23-amine] | 0.1 to 50 nM | 50 to 500 nM | A (bin A for very high selectivity, ratio >30-fold) | A (bin A for very high selectivity, ratio >30-fold) | A (bin A for very high selectivity, ratio >30-fold) | A (bin A for very high selectivity, ratio >30-fold) | 0.1 to 50 nM | 0.1 to 50 nM | < 50 nM | 50 to 500 nM | 0.1 to 50 nM | < 50 nM | < 50 nM | < 50 nM
3 | C[C@H]1Oc2cc(cnc2N)-c2c(cnn2CC(F)F)Cc2ncc(F)cc2-c2ccc(F)cc21 [Example 73, (20R)-3-(2,2difluoroethyl)-11,17-difluoro-20-methyl-21-oxa-3,4.9,24-tetraazapentacyclo[20.3.1.0^2,^6.0^8,^13.0^13,^19]hexacosa-1(25),2(6),4,8(13),9,11,14,16,18,22(26),23-undecaen-23-amine] | 50 to 500 nM | 50 to 500 nM | A (bin A for very high selectivity, ratio >30-fold) | A (bin A for very high selectivity, ratio >30-fold) | C (bin C for moderate selectivity, ratio ≥1) | A (bin A for very high selectivity, ratio >30-fold) | 0.1 to 50 nM | 0.1 to 50 nM | < 50 nM | 50 to 500 nM | 0.1 to 50 nM | < 50 nM | < 50 nM | < 50 nM
4 | C[C@H]1Oc2cc(cnc2N)-c2c(cnn2CC2CC2)Cn2nc(Cl)cc2-c2ccc(F)cc21 [Example 74, (19R)-10-chloro-3-(cyclopropylmethyl)-16-fluoro-19-methyl-20-oxa-3,4,8,9,23-pentaazapentacyclo[19.3.1.0^2,^6.0^8,^12.0^13,^18]pentacosa-1(24),2(6),4,9,11,13,15,17,21 (25),22-decaen-22-amine] | 0.1 to 50 nM | 50 to 500 nM | A (bin A for very high selectivity, ratio >30-fold) | A (bin A for very high selectivity, ratio >30-fold) | B (bin B for high selectivity, ratio >10-fold) | A (bin A for very high selectivity, ratio >30-fold) | 0.1 to 50 nM | 0.1 to 50 nM | < 50 nM | 50 to 500 nM | 0.1 to 50 nM | < 50 nM | < 50 nM | < 50 nM
5 | Cc1nc2n(n1)Cc1cnn(CC3CC3)c1-c1cnc(N)c(c1)O[C@H](C)c1cc(F)ccc1-2 [Example 75, (19R)-3-(cyclopropylmethyl)-16-fluoro-10,19-dimethyl-20-oxa-3,4,8,9,11,23-hexaazapentacyclo[19.3.10^2,^6.0^8,^12.0^13,^18]pentacosa-1(24),2(6),4,9,11,13,15,17,21(25),22-decaen-22-amine] | 0.1 to 50 nM | 50 to 500 nM | A (bin A for very high selectivity, ratio >30-fold) | A (bin A for very high selectivity, ratio >30-fold) | B (bin B for high selectivity, ratio >10-fold) | A (bin A for very high selectivity, ratio >30-fold) | 0.1 to 50 nM | 0.1 to 50 nM | < 50 nM | 50 to 500 nM | 0.1 to 50 nM | < 50 nM | < 50 nM | < 50 nM
6 | Cc1nc2c(o1)-c1ccc(F)cc1[C@@H](C)Oc1cc(cnc1N)-c1c(cnn1CC1CC1)C2 [Example 76, (19R)-3-(cyclopropylmethyl)-16-fluoro-10,19-dimethyl-11,20-dioxa-3,4,9,23-tetraazapentacyclo[19.3.1,0^2,^6.0^8,^12.0^13,^18]pentacosa-1(24),2(6),4,8(12),9,13,15,17,21(25),22-decaen-22-amine] | 0.1 to 50 nM | > 500 nM | A (bin A for very high selectivity, ratio >30-fold) | A (bin A for very high selectivity, ratio >30-fold) | A (bin A for very high selectivity, ratio >30-fold) | A (bin A for very high selectivity, ratio >30-fold) | 0.1 to 50 nM | 0.1 to 50 nM | < 50 nM | > 500 nM | 0.1 to 50 nM | < 50 nM | < 50 nM | < 50 nM
